The results in this text go back to ChEMBL document CHEMBL4765362, “Thirty Years of HDAC Inhibitors: 2020 Insight and Hindsight” (J Med Chem, 2020).

The term IC50 denotes the concentration needed to halve the response being measured.

The target in assay [1] is T1, Histone deacetylase 7 (Homo sapiens, UniProt Q8WUI4).
T1 sequence (Q8WUI4 whole entry): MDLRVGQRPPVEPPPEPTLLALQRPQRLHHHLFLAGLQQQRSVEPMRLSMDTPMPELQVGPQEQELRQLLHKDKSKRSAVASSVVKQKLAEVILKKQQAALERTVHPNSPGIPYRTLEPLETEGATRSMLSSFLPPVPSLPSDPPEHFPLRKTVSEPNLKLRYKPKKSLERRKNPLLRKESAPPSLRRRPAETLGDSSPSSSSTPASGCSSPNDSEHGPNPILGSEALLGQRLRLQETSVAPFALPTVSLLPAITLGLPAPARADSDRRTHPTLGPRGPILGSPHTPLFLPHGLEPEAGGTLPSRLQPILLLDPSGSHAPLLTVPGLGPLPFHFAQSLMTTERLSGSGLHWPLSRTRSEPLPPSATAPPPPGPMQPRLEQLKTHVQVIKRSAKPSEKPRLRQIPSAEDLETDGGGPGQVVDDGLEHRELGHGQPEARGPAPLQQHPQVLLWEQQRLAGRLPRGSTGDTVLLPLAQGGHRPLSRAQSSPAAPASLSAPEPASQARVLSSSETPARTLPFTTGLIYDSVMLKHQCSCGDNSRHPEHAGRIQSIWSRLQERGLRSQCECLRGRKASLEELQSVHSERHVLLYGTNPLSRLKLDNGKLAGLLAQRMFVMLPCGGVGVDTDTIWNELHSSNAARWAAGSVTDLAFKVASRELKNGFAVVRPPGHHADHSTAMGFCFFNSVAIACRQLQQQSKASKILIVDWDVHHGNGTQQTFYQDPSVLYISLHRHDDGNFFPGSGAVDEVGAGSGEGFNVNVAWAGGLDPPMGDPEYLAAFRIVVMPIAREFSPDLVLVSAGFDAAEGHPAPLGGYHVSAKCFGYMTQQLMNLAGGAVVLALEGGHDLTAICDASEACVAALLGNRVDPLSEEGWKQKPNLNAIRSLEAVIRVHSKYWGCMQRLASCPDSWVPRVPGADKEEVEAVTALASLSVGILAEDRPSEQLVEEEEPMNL
Put plainly: Inhibition of HDAC7 (unknown origin) using HDAC class IIa substrate (trifluoroacetyl-lysine-AMC) as substrate by fluorescent method.

Assay [2] addresses T2, Histone deacetylase 11 (Homo sapiens, UniProt Q96DB2).
T2 sequence (Q96DB2 whole entry): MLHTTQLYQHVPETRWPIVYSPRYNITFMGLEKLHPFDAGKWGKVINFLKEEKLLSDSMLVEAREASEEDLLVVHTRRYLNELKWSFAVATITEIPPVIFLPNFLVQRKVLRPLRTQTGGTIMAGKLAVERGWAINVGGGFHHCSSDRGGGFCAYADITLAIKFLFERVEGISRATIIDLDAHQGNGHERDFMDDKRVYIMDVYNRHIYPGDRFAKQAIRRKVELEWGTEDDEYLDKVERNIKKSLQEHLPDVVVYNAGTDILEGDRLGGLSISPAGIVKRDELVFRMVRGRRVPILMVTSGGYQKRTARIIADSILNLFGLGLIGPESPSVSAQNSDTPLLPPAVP
Put plainly: Inhibition of HDAC11 (unknown origin) using p53 (379 to 382 residues)(RHKK(Ac)-AMC) as substrate by fluorescent method.

For assay [3], the target named is T1, Histone deacetylase 7. Nature of the assay: Inhibition of HDAC7 (unknown origin).
For assay [4], the target named is T3, Polyamine deacetylase HDAC10 (Homo sapiens, UniProt Q969S8).
T3 sequence (Q969S8 whole entry): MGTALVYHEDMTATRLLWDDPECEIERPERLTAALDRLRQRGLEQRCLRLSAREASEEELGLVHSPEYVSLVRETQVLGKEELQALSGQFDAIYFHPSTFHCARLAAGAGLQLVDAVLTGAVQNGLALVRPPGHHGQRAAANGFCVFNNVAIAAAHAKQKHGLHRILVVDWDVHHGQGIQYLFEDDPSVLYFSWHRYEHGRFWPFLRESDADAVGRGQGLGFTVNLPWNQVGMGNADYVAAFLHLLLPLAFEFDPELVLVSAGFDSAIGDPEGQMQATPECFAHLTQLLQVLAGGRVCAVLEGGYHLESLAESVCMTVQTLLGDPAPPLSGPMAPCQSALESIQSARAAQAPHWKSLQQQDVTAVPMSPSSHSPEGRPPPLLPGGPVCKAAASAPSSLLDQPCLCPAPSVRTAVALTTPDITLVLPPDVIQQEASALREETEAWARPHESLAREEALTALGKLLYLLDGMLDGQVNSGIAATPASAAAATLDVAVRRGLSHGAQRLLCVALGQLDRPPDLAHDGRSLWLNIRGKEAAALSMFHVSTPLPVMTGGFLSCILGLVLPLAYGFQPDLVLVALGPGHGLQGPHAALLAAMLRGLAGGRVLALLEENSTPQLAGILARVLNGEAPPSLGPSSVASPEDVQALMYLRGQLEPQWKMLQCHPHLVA
Nature of the assay: Inhibition of HDAC10 (unknown origin).

Another assay concerns the target Histone deacetylase 2 (Homo sapiens, UniProt Q92769). Put plainly: Inhibition of HDAC2 (unknown origin).
Assay [5] deals with T2, Histone deacetylase 11. Nature of the assay: Inhibition of human full length C-terminal Flag tagged HDAC11 expressed in HEK293T cells assessed as reduction in demyristoylation activity using H3K9-myristoyl peptide as substrate by HPLC method.

Some results are limits rather than exact numbers.

Histone deacetylase 2, sequence (Q92769 whole entry): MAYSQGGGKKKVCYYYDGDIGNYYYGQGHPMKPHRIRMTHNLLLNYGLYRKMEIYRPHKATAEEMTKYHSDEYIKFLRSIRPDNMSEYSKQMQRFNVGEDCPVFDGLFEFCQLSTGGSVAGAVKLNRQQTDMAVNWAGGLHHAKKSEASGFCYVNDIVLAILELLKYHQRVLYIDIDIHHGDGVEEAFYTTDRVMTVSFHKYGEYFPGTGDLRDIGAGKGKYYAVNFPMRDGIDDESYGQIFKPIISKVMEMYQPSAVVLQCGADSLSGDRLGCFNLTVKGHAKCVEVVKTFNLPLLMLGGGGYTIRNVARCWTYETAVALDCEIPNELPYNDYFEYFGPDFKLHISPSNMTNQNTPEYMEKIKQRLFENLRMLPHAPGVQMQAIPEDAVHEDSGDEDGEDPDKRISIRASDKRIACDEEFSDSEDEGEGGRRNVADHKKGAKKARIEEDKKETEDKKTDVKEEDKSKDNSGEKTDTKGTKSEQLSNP

For the compound `Cn1cc(-c2ccc(S(=O)(=O)n3ccc(/C=C/C(=O)Nc4ccccc4N)c3)cc2)cn1` [DOMATINOSTAT], the IC50 on Histone deacetylase 7 [1] was greater than 10 µM; against Histone deacetylase 11 [2], 9.7 µM.

Consider `CCCCCCCCCCCCCCCCNNC(=O)c1cccs1`, for which the IC50 is greater than 10 µM at Histone deacetylase 7 [3], greater than 10 µM in assay [4], greater than 10 µM on Histone deacetylase 2 and 0.83 µM at Histone deacetylase 11 [5].
